Target: T1, rat T1R1/T1R3 umami taste receptor (Rattus norvegicus, UniProt Q9Z0R8)
T1 construct: expressed in transfected cells; host or cells: HEK-293 cells, transient transfection, pEAK10 expression vector
T1 sequence (Q9Z0R8 20-840): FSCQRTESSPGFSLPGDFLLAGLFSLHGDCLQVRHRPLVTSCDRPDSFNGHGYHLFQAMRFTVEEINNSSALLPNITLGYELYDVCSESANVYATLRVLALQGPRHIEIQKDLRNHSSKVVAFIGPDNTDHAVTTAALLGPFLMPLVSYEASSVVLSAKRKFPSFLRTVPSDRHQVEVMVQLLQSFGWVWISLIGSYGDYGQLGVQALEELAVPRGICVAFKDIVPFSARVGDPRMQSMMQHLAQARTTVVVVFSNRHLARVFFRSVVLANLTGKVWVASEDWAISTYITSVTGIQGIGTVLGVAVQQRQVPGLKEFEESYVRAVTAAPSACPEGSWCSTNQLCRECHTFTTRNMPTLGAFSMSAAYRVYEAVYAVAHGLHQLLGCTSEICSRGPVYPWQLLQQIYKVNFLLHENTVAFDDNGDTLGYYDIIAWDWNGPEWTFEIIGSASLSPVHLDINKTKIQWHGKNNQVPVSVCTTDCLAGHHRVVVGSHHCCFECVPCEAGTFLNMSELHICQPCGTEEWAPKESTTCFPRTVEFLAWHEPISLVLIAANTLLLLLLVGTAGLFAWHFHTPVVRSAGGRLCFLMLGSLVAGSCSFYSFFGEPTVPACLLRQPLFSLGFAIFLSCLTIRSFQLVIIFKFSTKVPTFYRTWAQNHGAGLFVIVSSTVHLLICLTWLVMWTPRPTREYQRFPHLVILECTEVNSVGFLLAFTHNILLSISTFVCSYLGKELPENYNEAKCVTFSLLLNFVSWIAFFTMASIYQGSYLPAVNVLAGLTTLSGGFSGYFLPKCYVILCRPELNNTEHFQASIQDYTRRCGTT
T1 sequence (Q923K1 21-858 partner): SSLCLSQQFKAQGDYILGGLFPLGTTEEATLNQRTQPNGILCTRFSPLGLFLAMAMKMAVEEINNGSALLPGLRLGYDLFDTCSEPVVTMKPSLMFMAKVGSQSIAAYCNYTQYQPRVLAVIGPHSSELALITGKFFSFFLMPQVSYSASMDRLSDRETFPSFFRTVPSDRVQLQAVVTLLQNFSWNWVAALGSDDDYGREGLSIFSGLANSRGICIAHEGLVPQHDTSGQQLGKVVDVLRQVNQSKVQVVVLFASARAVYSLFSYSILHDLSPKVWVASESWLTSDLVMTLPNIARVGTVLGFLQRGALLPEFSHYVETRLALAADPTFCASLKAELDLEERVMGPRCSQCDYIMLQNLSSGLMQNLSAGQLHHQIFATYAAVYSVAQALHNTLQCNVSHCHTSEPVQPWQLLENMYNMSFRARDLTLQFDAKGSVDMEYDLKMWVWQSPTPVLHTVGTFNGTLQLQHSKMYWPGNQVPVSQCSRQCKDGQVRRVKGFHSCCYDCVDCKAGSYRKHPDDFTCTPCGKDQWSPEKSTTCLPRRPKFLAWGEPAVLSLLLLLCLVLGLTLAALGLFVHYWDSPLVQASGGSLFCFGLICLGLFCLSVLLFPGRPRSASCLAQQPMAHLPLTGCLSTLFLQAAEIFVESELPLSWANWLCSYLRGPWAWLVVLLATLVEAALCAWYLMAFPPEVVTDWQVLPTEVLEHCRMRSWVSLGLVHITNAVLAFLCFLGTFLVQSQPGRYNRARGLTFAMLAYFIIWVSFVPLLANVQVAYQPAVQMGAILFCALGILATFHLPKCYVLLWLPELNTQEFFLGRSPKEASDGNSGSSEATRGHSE
Assay: calcium imaging in HEK-293 cells transiently transfected with rat T1R1, T1R3 and Gα15 or Gα15/i1
Assay type: cell-based
Conditions: HEK-293 transiently transfected with rat T1R1, T1R3 and Gα15/i1; in the presence of 2.5 mM IMP
Protocol: Rat T1R2 and T1R3 expression constructs were generated using the pEAK10 expression vector (Edge Biosystems). (Rat T1R1, T1R2, and T1R3 nucleic acid sequences are described in U.S. Provisional Application No. 60/339,472, incorporated by reference in its entirety herein). HEK-293 cells were grown and maintained at 37° C. in Dulbecco's Modified Eagle Medium (DMEM) supplemented with 10% FBS and MEM non-essential amino acids (Gibco BRL). For calcium-imaging experiments, cells were first seeded onto 24-well tissue-culture plates (approximately 100,000 cells per well), and transfected using Mirus Translt-293 (PanVera). Transfection efficiencies, which were estimated by cotransfection with an RFP expression vector, were typically approximately 70%. […] Calcium mobilization was monitored on an Axiovert S100 microscope equipped with an inverted 10×/0.5 LWD piano fluor objective (Zeiss) and a cooled CCD camera (Princeton Instruments). Fluorescence images were acquired at 480 nm excitation and 535 nm emission, and analyzed with Imaging Workbench 4.0 software (Axon Instruments). T1R receptor activity was quantitated by counting the number of responding cells 30 seconds after stimulus addition. […]

Row | Compound | response of cells (intracellular calcium increase, number of responding cells) to umami taste stimuli
1 | N[C@@H](CC(=O)O)C(=O)O [L-aspartate] | responded
2 | N[C@@H](CCC(=O)O)C(=O)O [L-glutamate] | responded

Source: patent US7208290B2, “Methods of co-expressing umami taste receptors and chimeric Gα15 variants” (Senomyx, Inc., priority 2002, dated 2007)
